Assay results as given in the supplement of paper PMC7017272.
± gives the standard deviation of the averaged measurements.

Experiments:
Conditions in all cases: treatment time: 3 days
UT-SCC-24A [1] = test: drug sensitivity score (DSS); higher = more sensitive
Protocol: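 HNSCC cell lines (500 cells/well, 384-well) were cultured on plastic, on top of (2D) or embedded (3D) in Matrigel or human leiomyoma matrix Myogel (500 ug/mL; Myogel 3D mixed with rat collagen I). Cells were treated for 3 days with 5 ten-fold concentrations of each drug, and viability was read by CellTiter-Glo. Suffixes _1/_2/_3 on drug names are replicates.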

UT-SCC-106A [2] = test: maximal % inhibition of viability relative to DMSO; higher = stronger effect
Outline: (§1)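 Using 384-well plates, 500 cells/well of HPV-negative HNSCC cell lines were grown on plastic, on 500 µg/mL Matrigel or Myogel coatings, or embedded in Matrigel or Myogel with rat collagen I. They were treated with compounds at five 10-fold concentrations for 3 days, and luminescence from CellTiter-Glo 2.0 was normalised to vehicle (0.1% DMSO) and cell-killing control wells. IC50, maximal inhibition and drug sensitivity score were derived from percent-inhibition dose–response curves in the FIMM pipeline.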

UT-SCC-14 [3] = test: as above
Outline: as §1

UT-SCC-28 [4] = test: as above
Outline: as §1

UT-SCC-24A [5] = test: maximal % inhibition of viability relative to DMSO; higher = stronger effect
Protocol: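 HNSCC cell lines (500 cells/well, 384-well) were cultured on plastic, on top of (2D) or embedded (3D) in Matrigel or human leiomyoma matrix Myogel (500 ug/mL; Myogel 3D mixed with rat collagen I). Cells were treated for 3 days with 5 ten-fold concentrations of each drug, and viability was read by CellTiter-Glo. Viability was normalised to DMSO (0% inhibition) and 100 uM benzethonium chloride (100% inhibition) controls and fitted with the FIMM DSRT pipeline to give IC50 (nM), maximal % inhibition and the drug sensitivity score (DSS). Suffixes _1/_2/_3 on drug names are replicates.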

UT-SCC-106A [6] = test: drug sensitivity score (DSS); higher = more sensitive; extreme values may be limits of the assay
Outline: as §1

UT-SCC-14 [7] = test: as above
Outline: as §1

UT-SCC-24B = test: as above
Outline: as §1

UT-SCC-28 [8] = test: as above
Outline: as §1

UT-SCC-40 = test: as above
Outline: as §1

UT-SCC-42A = test: as above
Outline: as §1

UT-SCC-42B = test: as above
Outline: as §1

UT-SCC-44 = test: as above
Outline: as §1

UT-SCC-73 = test: as above
Outline: as §1

UT-SCC-81 = test: as above
Outline: as §1

UT-SCC-8 = test: as above
Outline: as §1

[9] = culture condition: embedded in Matrigel
[10] = culture condition: embedded in Myogel + collagen I
[11] = culture condition: on top of Matrigel
[12] = culture condition: on top of Myogel
[13] = culture condition: plastic 2D (no matrix)

In the case of `COc1cc(F)c(F)c(Nc2ccc(I)cc2F)c1NS(=O)(=O)C1(C[C@H](O)CO)CC1` [Refametinib], the drug sensitivity score (UT-SCC-24A [1]; [9]) is reported as 34.3 ± 1.1 DSS, the drug sensitivity score (UT-SCC-24A [1]; [10]) is reported as 17.3 ± 2.2 DSS and the drug sensitivity score (UT-SCC-24A [1]; [11]) is reported as 29.2 ± 1.3 DSS. The drug sensitivity score (UT-SCC-24A [1]; [12]) was 13 ± 1.6 DSS, the drug sensitivity score (UT-SCC-24A [1]; [13]) was 26.7 ± 0.62 DSS and the “maximal % inhibition of viability” value (UT-SCC-106A [2]; [9]) was 53.7 ± 4.7%. For the same molecule, the “maximal % inhibition of viability” value (UT-SCC-106A [2]; [10]) was 36.7 ± 3.4%, the “maximal % inhibition of viability” value (UT-SCC-106A [2]; [11]) was 66 ± 2.5% and the “maximal % inhibition of viability” value (UT-SCC-106A [2]; [12]) was 43.4 ± 3.1%. For the same molecule, the “maximal % inhibition of viability” value (UT-SCC-106A [2]; [13]) was 67.33 ± 0.64%, the “maximal % inhibition of viability” value (UT-SCC-14 [3]; [9]) was 62.5 ± 5.1% and the “maximal % inhibition of viability” value (UT-SCC-14 [3]; [10]) was 57 ± 5.9%. For the same molecule, the “maximal % inhibition of viability” value (UT-SCC-14 [3]; [11]) was 52.9 ± 9.5%, the “maximal % inhibition of viability” value (UT-SCC-14 [3]; [12]) was 52.2 ± 5.8% and the “maximal % inhibition of viability” value (UT-SCC-14 [3]; [13]) was 47.7 ± 7.5%. For the same molecule, the “maximal % inhibition of viability” value (UT-SCC-28 [4]; [9]) was 49.8 ± 4%, the “maximal % inhibition of viability” value (UT-SCC-28 [4]; [10]) was 33 ± 8.1% and the “maximal % inhibition of viability” value (UT-SCC-28 [4]; [11]) was 45.1 ± 8.6%. The “maximal % inhibition of viability” value (UT-SCC-28 [4]; [13]) was 23.7 ± 2%, the “maximal % inhibition of viability” value (UT-SCC-24A [5]; [9]) was 84.4 ± 1.8% and the “maximal % inhibition of viability” value (UT-SCC-24A [5]; [10]) was 73.9 ± 0.81%. The “maximal % inhibition of viability” value (UT-SCC-24A [5]; [11]) was 80.4 ± 2.4%, the “maximal % inhibition of viability” value (UT-SCC-24A [5]; [12]) was 59.7 ± 7.4% and the “maximal % inhibition of viability” value (UT-SCC-24A [5]; [13]) was 75.4 ± 3.4%. For the same molecule, the drug sensitivity score (UT-SCC-106A [6]; [9]) was 17.8 ± 1.8 DSS, the drug sensitivity score (UT-SCC-106A [6]; [10]) was 3.97 ± 0.67 DSS and the drug sensitivity score (UT-SCC-106A [6]; [11]) was 21.6 ± 1.2 DSS. For the same molecule, the drug sensitivity score (UT-SCC-106A [6]; [12]) was 5.3 ± 0.82 DSS, the drug sensitivity score (UT-SCC-106A [6]; [13]) was 20.4 ± 0.42 DSS and the drug sensitivity score (UT-SCC-14 [7]; [9]) was 13.5 ± 4.8 DSS. The drug sensitivity score (UT-SCC-14 [7]; [10]) was 9.87 ± 1.7 DSS, the drug sensitivity score (UT-SCC-14 [7]; [11]) was 10.9 ± 3.1 DSS and the drug sensitivity score (UT-SCC-14 [7]; [12]) was 8.53 ± 0.47 DSS. For the same molecule, the drug sensitivity score (UT-SCC-14 [7]; [13]) was 5.8 ± 2.8 DSS, the drug sensitivity score (UT-SCC-24B; [9]) was 12.4 ± 0.7 DSS and the drug sensitivity score (UT-SCC-24B; [10]) was 10.4 ± 1.8 DSS. For the same molecule, the drug sensitivity score (UT-SCC-24B; [11]) was 11.8 ± 0.98 DSS, the drug sensitivity score (UT-SCC-24B; [12]) was 6.87 ± 1 DSS and the drug sensitivity score (UT-SCC-24B; [13]) was 16.4 ± 2.1 DSS. The drug sensitivity score (UT-SCC-28 [8]; [9]) was 9.8 ± 1.8 DSS, the drug sensitivity score (UT-SCC-28 [8]; [10]) was 4.67 ± 4.2 DSS and the drug sensitivity score (UT-SCC-28 [8]; [11]) was 13.2 ± 2.8 DSS. It also gave a drug sensitivity score (UT-SCC-28 [8]; [13]) of 4.4 ± 2.4 DSS, a drug sensitivity score (UT-SCC-40; [9]) of 26.9 ± 1.2 DSS and a drug sensitivity score (UT-SCC-40; [10]) of 16.8 ± 2 DSS. The drug sensitivity score (UT-SCC-40; [11]) was 22.5 ± 1.8 DSS, the drug sensitivity score (UT-SCC-40; [12]) was 14.3 ± 1.1 DSS and the drug sensitivity score (UT-SCC-40; [13]) was 14.1 ± 1.1 DSS. The drug sensitivity score (UT-SCC-42A; [9]) was 18 ± 1.1 DSS, the drug sensitivity score (UT-SCC-42A; [10]) was 8.7 ± 1.7 DSS and the drug sensitivity score (UT-SCC-42A; [11]) was 19.2 ± 0.8 DSS. For the same molecule, the drug sensitivity score (UT-SCC-42A; [12]) was 11.5 ± 1.4 DSS, the drug sensitivity score (UT-SCC-42A; [13]) was 15.3 ± 0.1 DSS and the drug sensitivity score (UT-SCC-42B; [9]) was 25.5 ± 1.9 DSS. The drug sensitivity score (UT-SCC-42B; [11]) was 15.7 ± 1.7 DSS, the drug sensitivity score (UT-SCC-42B; [12]) was 5.27 ± 0.5 DSS and the drug sensitivity score (UT-SCC-42B; [13]) was 8.27 ± 1.1 DSS. For the same molecule, the drug sensitivity score (UT-SCC-44; [9]) was 23.7 ± 1.5 DSS, the drug sensitivity score (UT-SCC-44; [10]) was 8.1 ± 2.3 DSS and the drug sensitivity score (UT-SCC-44; [11]) was 18.2 ± 2.5 DSS. For the same molecule, the drug sensitivity score (UT-SCC-44; [12]) was 7.4 ± 1.2 DSS, the drug sensitivity score (UT-SCC-44; [13]) was 15.3 ± 0.64 DSS and the drug sensitivity score (UT-SCC-73; [9]) was 25 ± 1.3 DSS. For the same molecule, the drug sensitivity score (UT-SCC-73; [10]) was 16 ± 3.4 DSS, the drug sensitivity score (UT-SCC-73; [11]) was 24 ± 0.8 DSS and the drug sensitivity score (UT-SCC-73; [12]) was 15.1 ± 1.1 DSS. For the same molecule, the drug sensitivity score (UT-SCC-73; [13]) was 20 ± 1.4 DSS, the drug sensitivity score (UT-SCC-81; [9]) was 29.8 ± 2 DSS and the drug sensitivity score (UT-SCC-81; [10]) was 5.87 ± 0.35 DSS. The drug sensitivity score (UT-SCC-81; [11]) was 21.1 ± 1.4 DSS, the drug sensitivity score (UT-SCC-81; [12]) was 5.53 ± 1.2 DSS and the drug sensitivity score (UT-SCC-81; [13]) was 8.8 ± 0.96 DSS. It also gave a drug sensitivity score (UT-SCC-8; [9]) of 15.7 ± 1.7 DSS, a drug sensitivity score (UT-SCC-8; [10]) of 6.63 ± 3.1 DSS and a drug sensitivity score (UT-SCC-8; [11]) of 12.5 ± 1.5 DSS. The drug sensitivity score (UT-SCC-8; [12]) was 10.3 ± 2 DSS and the drug sensitivity score (UT-SCC-8; [13]) was 10.9 ± 2.8 DSS.
